According to ChEMBL document CHEMBL4184170, “New Caspase-1 inhibitor by scaffold hopping into bio-inspired 3D-fragment space” (Bioorg Med Chem Lett, 2017):

Columns and labels:
[1] = Fraction unbound in human plasma at 5 uM after 4 hrs by LC-MS/MS-based equilibrium dialysis method; type: ADME, cell-free
Caspase-1 [2] = biological target: T1, Caspase-1 (Homo sapiens, UniProt P29466); assay: Inhibition of human recombinant caspase1 expressed in Escherichia coli using AC-WEHD-AMC as substrate after 20 mins by fluorescence assay
T1 sequence (P29466 whole entry): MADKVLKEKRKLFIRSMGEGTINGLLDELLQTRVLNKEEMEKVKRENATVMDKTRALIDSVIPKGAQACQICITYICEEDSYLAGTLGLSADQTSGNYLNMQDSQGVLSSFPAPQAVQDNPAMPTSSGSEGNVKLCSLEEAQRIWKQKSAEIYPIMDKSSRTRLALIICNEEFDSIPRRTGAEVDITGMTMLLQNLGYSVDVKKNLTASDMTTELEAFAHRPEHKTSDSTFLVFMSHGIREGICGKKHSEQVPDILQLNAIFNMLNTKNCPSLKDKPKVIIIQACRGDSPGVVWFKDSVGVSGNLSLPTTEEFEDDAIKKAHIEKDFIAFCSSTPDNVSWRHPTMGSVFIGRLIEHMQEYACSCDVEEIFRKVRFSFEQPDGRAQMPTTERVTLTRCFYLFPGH

[3] = Lipophilicity, log D of the compound at pH 6.5 by chromatographic method; type: physicochemical; conditions: buffer
Caspase-1 [4] = biological target: T1, Caspase-1; assay: Inhibition of caspase1 in human THP1 cells assessed as LPS/ATP-induced IL-1beta release preincubated for 24 hrs in presence of LPS measured after overnight incubation by HTRF assay; type: cell-based

Row | fraction unbound at 4 h, 5 µM [1] | IC50 (Caspase-1 [2]) [µM] | chromatographic logD [3] | IC50 (Caspase-1 [4]) [µM] | SMILES
1 | 0.12 | 0.017 | 2.1 | 0.086 | CC(C)[C@H](NC(=O)c1ccc2ccccc2c1)C(=O)N1[C@H]2CC[C@](O)(CC2)[C@H]1C(=O)N[C@H]1CC(=O)OC1O (stereo partly specified)
2 |  | 0.011 |  |  | O=C1C[C@H](NC(=O)[C@@H]2CC[C@@H]3CCCC[C@H](NC(=O)c4nccc5ccccc45)C(=O)N32)C(O)O1 (stereo partly specified)
3 |  | 0.005 |  |  | CC(C)(C)[C@H](NC(=O)c1ccc(N)c(Cl)c1)C(=O)N1CCC[C@H]1C(=O)N[C@H]1CC(=O)OC1O (stereo partly specified)
